{"source": "patent US8765920B2", "about": "“Tyrosine bioconjugation through aqueous Ene-like reactions” (priority 2009, dated 2014)", "assay": "Stability study of modified p-cresol under thermal conditions", "assay_type": "physicochemical", "conditions": "120° C. for 1 h", "description": "Compound 4, the product of the reaction of p-cresol and PTAD, was subjected to both strongly acidic and basic conditions for 24 hours at room temperature or high temperature (120° C.) for 1 hr. […] These conditions are extremely harsh for a peptide or protein.\nThe relative stability of the C—N bond formed in the products was studied using p-cresol as a model phenol. As shown in Scheme 11, p-cresol was reacted with PTAD in tetrahydrofuran in the presence of sodium hydride to provide adduct in 75% isolated yield. Compound 8f was subjected to both strong acidic and basic conditions for 24 hours at room temperature or high temperature (120° C.) for 1 h.\nCompound 4 (4.00 mg, 0.0141 mmol) was heated at 120° C. for 1 h according to the literature. The recovery of 4 was 4.00 mg (quant.).\nCompound 23 (4.00 mg, 0.0141 mmol) was heated at 120° C. for 1 h according to literature. The recovery of 23 was 4.00 mg (quant.)."}
{"smiles": "Cc1ccc(O)c(-n2[nH]c(=O)n(-c3ccccc3)c2=O)c1", "note": "[Compound 4, 1-(2-hydroxy-5-methylphenyl)-4-phenyl-1,2,4-triazolidine-3,5-dione]", "values": [{"measurement": "decomposition by 1H NMR after heating", "value": "wasn't detected"}]}
